# Test results reported in PMC12005787, “Synthetic Lethality of SHP2 and XIAP Suppresses Proliferation and Metastasis in KRAS‐mutant Nonsmall Cell Lung Cancer” (Advanced Science, 2025).
# Read-outs that look alike come from different tables or passages of the source.
# How the values were obtained:
# HCC827 cells = test: Cell viability assay (CCK-8); type: cell-based; settings: Homo sapiens; HCC827, RAS-wild type, 24 h
# Method: (§1) supplies are listed in Supplementary Table S5. The relevant reagents for protein extraction from Escherichia coli are listed in Supplementary Table S6. Inhibitory effects of embelin on KRAS-mutant and wild-type cells are listed in Supplementary Table S7.
# (§2) For the adherent cell viability assay, cells in the logarithmic growth phase were seeded in 96-well culture plates at a density of 5×103 well-1 and incubated overnight. Diluted compounds or DMSO were added, or specific treatments were incubated at 37 °C and 5% CO2 for 24 h or 48 h. Cell viability was determined using CCK-8 or CellLightTM Cell Viability Assay Kit, according to the manufacturer's protocol. The luminescence signals of the treated samples were normalized to those of the DMSO group. […]
# SW620 cells = test: Cell viability assay (CCK-8); type: cell-based; settings: Homo sapiens, SW-620
# Method: as §1, §2
# [1] = system: NCI-H2122, A549, and NCI-H1944 cells; test: Cell senescence β-galactosidase staining; type: cell-based, human; settings: A549, NCI‐H2122, and NCI‐H1944 cells
# Method: Cell senescence β-galactosidase staining
# NCI-H2122, A549, and NCI-H1944 cells in the logarithmic growth phase were seeded into 48-well plates and cultured overnight. The supernatant was aspirated and fresh serum-free (0%), low-serum (3%), or regular serum (10%) medium with different drugs was added for 48 h. When the supernatant was discarded, β-galactosidase staining fixation fluid were added for 15 min and β-galactosidase staining solution were imported overnight at 37 ℃.
# Finally, the staining results were recorded using an inverted microscope.
# His‐ΔSHP2 [2] = molecular target: T1, His‐ΔSHP2 (Homo sapiens, UniProt Q06124); test: Reversibility of embelin-SHP2 binding (dialysis); type: biochemical
# T1 construct: His‐ΔSHP2, encompassing the peptide from amino acids 205–593 retaining PTP activity; His; made in house; host or cells: E. coli
# T1 sequence (Q06124 205-593): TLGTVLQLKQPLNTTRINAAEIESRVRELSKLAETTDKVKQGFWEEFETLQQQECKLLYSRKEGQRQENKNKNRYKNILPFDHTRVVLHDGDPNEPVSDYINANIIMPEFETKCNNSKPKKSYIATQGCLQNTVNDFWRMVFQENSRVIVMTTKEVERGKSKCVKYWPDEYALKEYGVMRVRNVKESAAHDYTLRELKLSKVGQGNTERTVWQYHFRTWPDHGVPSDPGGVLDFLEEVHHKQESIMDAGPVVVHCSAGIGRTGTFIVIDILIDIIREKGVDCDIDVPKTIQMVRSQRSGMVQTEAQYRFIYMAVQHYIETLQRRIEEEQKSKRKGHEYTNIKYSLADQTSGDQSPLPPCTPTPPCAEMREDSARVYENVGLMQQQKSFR
# Method: To test whether embelin and SHP2 were reversibly bound, the purified His‐ΔSHP2 fusion protein was dialyzed overnight in dialysis buffer (10 mM HEPES, 0.5 M NaCl, 1 mM TCEP, and 10% glycerol, pH 7.5), and the protein activity was detected by DiFMUP. After incubating embelin with dialyzed protein at 37 °C for 30 min, the mixed solution was dialyzed overnight or ultrafiltered, with DMSO as a control, and protein activity was detected by DiFMUP to determine the mode of protein‐compound binding.
# His‐ΔSHP2 [3] = molecular target: T1, His‐ΔSHP2; test: Enzymatic inhibition analysis (Michaelis-Menten, Lineweaver-Burk); type: biochemical
# Method: A Michaelis‐Menten model and Lineweaver‐Burk plot of SHP2 inhibition by embelin were established. In brief, enzyme kinetics of SHP2 varied with the concentrations of substrate DiFMUP and embelin, concentrations of embelin were selected at 0, 10, and 20 µM, and concentrations of DiFMUP were selected at 10, 20, 40, 80, and 160 µM. Recombinant His‐ΔSHP2 was preincubated for 30 min with embelin or DMSO at various concentrations in the absence of substrate and then assayed for enzymatic activity at different times as mentioned above.
# [4] = system: RAS wild‐type and mutant cells; test: Colony formation assay; type: cell-based
# Method: supplies are listed in Supplementary Table S5. […]
# Colony formation experiment
# Cells in the logarithmic growth phase were digested thoroughly into a single dispersed state and inoculated into six-well plates at a density of 100 well-1. Subsequently, different concentrations of the drugs were added for 14 d, consecutively, and the solution was changed every 2 d. Next, the cells were fixed with 4% formaldehyde, stained with 0.1% crystal violet, and the number of clones was counted using an inverted microscope. […]
# His‐ΔSHP2^K325A = molecular target: T2, His‐ΔSHP2^K325A (Homo sapiens, UniProt Q06124, K325A); test: Isothermal titration calorimetry; type: binding; settings: read-out: KD value (ITC)
# T2 construct: His‐ΔSHP2, encompassing the peptide from amino acids 205–593 retaining PTP activity; His; made in house; host or cells: E. coli BL21
# Method: The purified His‐ΔSHP2, His‐SHP2, or His‐ΔSHP2^K325A proteins were dialyzed overnight in dialysis buffer (20 mM HEPES, 0.15 M NaCl, 1 mM TCEP, 10% glycerol, pH 7.5). The protein concentration was determined using the BCA Protein Assay Kit, and the purity of the proteins was detected by Coomassie Brilliant Blue staining. ITC experiments were performed when the protein concentration was higher than 2 mg mL^−1 and the purity was greater than 90%. The instrument (Malvern Instruments, USA) was considered to be functioning optimally for compound and protein titration experiments when the DP value was < 0.05 µcal s^−1 by the water droplet experiment. After the sample cell was cleaned twice with protein dialysis buffer, a protein sample (300 µL) was loaded to the sample cell, an equal amount of ultrapure water was added to the reference cell, and the compound solution dissolved with the same dialysis buffer was put into the corresponding cell, in which the protein‐compound molar ratio was 1:10–1:20. The parameters were adjusted based on the curve‐fitting results to determine the optimal binding concentration gradient. Based on the exothermic changes in the reaction, the entropy increase and enthalpy change were analyzed using software fitting to obtain parameters such as the binding coefficient and affinity constant between the small molecules and proteins. […]
# His‐SHP2 = molecular target: T3, His‐SHP2 (Homo sapiens, UniProt Q06124); test: Isothermal titration calorimetry; type: binding; settings: read-out: KD value (ITC)
# T3 construct: His; made in house; host or cells: E. coli
# Method: The purified His‐ΔSHP2, His‐SHP2, or His‐ΔSHP2^K325A proteins were dialyzed overnight in dialysis buffer (20 mM HEPES, 0.15 M NaCl, 1 mM TCEP, 10% glycerol, pH 7.5). The protein concentration was determined using the BCA Protein Assay Kit, and the purity of the proteins was detected by Coomassie Brilliant Blue staining. ITC experiments were performed when the protein concentration was higher than 2 mg mL^−1 and the purity was greater than 90%. The instrument (Malvern Instruments, USA) was considered to be functioning optimally for compound and protein titration experiments when the DP value was < 0.05 µcal s^−1 by the water droplet experiment. After the sample cell was cleaned twice with protein dialysis buffer, a protein sample (300 µL) was loaded to the sample cell, an equal amount of ultrapure water was added to the reference cell, and the compound solution dissolved with the same dialysis buffer was put into the corresponding cell, in which the protein‐compound molar ratio was 1:10–1:20. The parameters were adjusted based on the curve‐fitting results to determine the optimal binding concentration gradient. Based on the exothermic changes in the reaction, the entropy increase and enthalpy change were analyzed using software fitting to obtain parameters such as the binding coefficient and affinity constant between the small molecules and proteins.
# [5] = embelin 0, 10, 20 µM, DiFMUP 10-160 µM
compound,measurement,setting,value
CCCCCCCCCCCC1=C(O)C(=O)C=C(O)C1=O [Embelin],IC50,HCC827 cells,4.95 ± 0.28 µM
same,IC50,"SW620 cells; SW620, 48 h, read-out: IC50 at 48 h",5.06 ± 0.45 µM
same,IC50,"SW620 cells; SW620, KRAS G12V, 24 h, read-out: IC50 at 24 h",18.6 ± 0.4 µM
same,induction of cell senescence,[1],induced senescence
same,mode of binding to SHP2 (dialysis),His‐ΔSHP2 [2],noncovalent
same,type of inhibition of SHP2,His‐ΔSHP2 [3],noncompetitive inhibitor
same,Km of ΔSHP2 protein after addition of compound,His‐ΔSHP2 [3]; [5],unchanged
same,Vm of ΔSHP2 protein after addition of compound,His‐ΔSHP2 [3]; [5],decreased
same,colony formation,[4],cytotoxic effects on both RAS
same,Kd,His‐ΔSHP2^K325A,0.346 µM
same,Kd,His‐SHP2,0.0229 µM
